This series deals with CCRIS mutagenicity, Ames/micronucleus/aberration tests. Description: CCRIS mutagenicity studies.
Setting [1] is: Test System: AMES SALMONELLA TYPHIMURIUM, Strain/Indicator: TA98, Metabolic Activation: NONE, Method: PREINCUBATION
Setting [2] is: Test System: AMES SALMONELLA TYPHIMURIUM, Strain/Indicator: TA100, Metabolic Activation: NONE, Method: PREINCUBATION
[3] abbreviates: Test System: AMES SALMONELLA TYPHIMURIUM, Strain/Indicator: TA1535, Metabolic Activation: NONE, Method: PREINCUBATION
The mark [4] stands for this setting: Test System: AMES SALMONELLA TYPHIMURIUM, Strain/Indicator: TA1537, Metabolic Activation: NONE, Method: PREINCUBATION

“Also recorded” adds a separate entry of the source. The source made the active and inactive calls. The rule behind the calls is not given here.

Among the data in PubChem BioAssay AID1259407 (Chemical Carcinogenesis Research Information System (CCRIS), 2018) are mutagenic call values, retold here.

Regarding `Cc1c(N)cc([N+](=O)[O-])c(N)c1C`, the mutagenic call is, setting by setting: (Test System: AMES SALMONELLA TYPHIMURIUM, Strain/Indicator: TA98, Metabolic Activation: NONE, Method: STANDARD PLATE) “active; positive”; (Test System: AMES SALMONELLA TYPHIMURIUM, Strain/Indicator: TA98, Metabolic Activation: RAT, LIVER, S-9, AROCLOR 1254, Method: STANDARD PLATE) “active; positive”; (Test System: AMES SALMONELLA TYPHIMURIUM, Strain/Indicator: TA100, Metabolic Activation: NONE, Method: STANDARD PLATE) “inactive; negative”; (Test System: AMES SALMONELLA TYPHIMURIUM, Strain/Indicator: TA100, Metabolic Activation: RAT, LIVER, S-9, AROCLOR 1254, Method: STANDARD PLATE) “inactive; negative”; (Test System: AMES SALMONELLA TYPHIMURIUM, Strain/Indicator: TA1535, Metabolic Activation: NONE, Method: STANDARD PLATE) “inactive; negative”; (Test System: AMES SALMONELLA TYPHIMURIUM, Strain/Indicator: TA1535, Metabolic Activation: RAT, LIVER, S-9, AROCLOR 1254, Method: STANDARD PLATE) “inactive; negative”. Further, the mutagenic call (Test System: AMES SALMONELLA TYPHIMURIUM, Strain/Indicator: TA1537, Metabolic Activation: NONE, Method: STANDARD PLATE) is “inactive; negative”; the mutagenic call (Test System: AMES SALMONELLA TYPHIMURIUM, Strain/Indicator: TA1537, Metabolic Activation: RAT, LIVER, S-9, AROCLOR 1254, Method: STANDARD PLATE) is “inactive; negative”; the mutagenic call (Test System: AMES SALMONELLA TYPHIMURIUM, Strain/Indicator: TA1538, Metabolic Activation: NONE, Method: STANDARD PLATE) is “active; positive”; the mutagenic call (Test System: AMES SALMONELLA TYPHIMURIUM, Strain/Indicator: TA1538, Metabolic Activation: RAT, LIVER, S-9, AROCLOR 1254, Method: STANDARD PLATE) was “active; positive”.
Take `CCNC(=O)CNC(=O)C=[N+]=[N-]`: the mutagenic call (Test System: UDS RODENT CELLS, Strain/Indicator: THY INCORP (NON-S-PHASE), Metabolic Activation: NONE, Method: AUTORADIOGRAPHY) is “active; positive”.
As to `O=c1n(CC2CO2)c(=O)n(CC2CO2)c(=O)n1CC1CO1` (stereo unspecified), the mutagenic call runs as follows: (End Point: IN VITRO CHROMOSOMAL ABERRATIONS, Test System: CHINESE HAMSTER LUNG CELLS (CHL), Metabolic Activation: NONE) “active; positive (structural changes)”; (End Point: IN VITRO CHROMOSOMAL ABERRATIONS, Test System: CHINESE HAMSTER LUNG CELLS (CHL), Metabolic Activation: RAT, LIVER, S-9, KC-400) “inactive; negative”; (End Point: IN VITRO CHROMOSOMAL ABERRATIONS, Test System: CHINESE HAMSTER OVARY CELLS (CHO), Metabolic Activation: NONE) “active; positive (structural changes)”; (End Point: IN VITRO CHROMOSOMAL ABERRATIONS, Test System: CHINESE HAMSTER OVARY CELLS (CHO), Metabolic Activation: RAT, LIVER, S-9, AROCLOR 1254) “active; positive (structural changes)”; (End Point: IN VITRO CHROMOSOMAL ABERRATIONS, Test System: CHL CELLS, Metabolic Activation: RAT, LIVER, S-9, SODIUM PHENOBARBITAL AND 5,6-BENZOFLAVONE) “active; positive (structural changes)”; (End Point: IN VITRO CHROMOSOMAL ABERRATIONS, Test System: CHL CELLS, Metabolic Activation: S-9) “active; positive; interlaboratory comparison between 2 labs; all reported positive resul; also recorded: active; positive (structural changes); interlaboratory comparison between 2 labs; both r”. The mutagenic call runs as follows: (End Point: IN VITRO CHROMOSOMAL ABERRATIONS, Test System: CHO CELLS, Metabolic Activation: S-9) “active; positive (structural changes); interlaboratory comparison between 2 labs; both r; also recorded: active; positive; interlaboratory comparison among 3 labs; all reported positive results”; (End Point: IN VITRO CHROMOSOMAL ABERRATIONS, Test System: CHO-LB CELLS, Metabolic Activation: NONE) “active; positive”; (End Point: IN VITRO CHROMOSOMAL ABERRATIONS, Test System: CHO-LB CELLS, Metabolic Activation: RAT, LIVER, S-9, AROCLOR 1254) “active; positive”; (Test System: AMES SALMONELLA TYPHIMURIUM, Strain/Indicator: TA98, Metabolic Activation: HAMSTER, LIVER, S-9, AROCLOR 1254 (30%), Method: PREINCUBATION) “active; positive”; under setting [1], “active; positive”; (Test System: AMES SALMONELLA TYPHIMURIUM, Strain/Indicator: TA98, Metabolic Activation: RAT LIVER S-9, PHENOBARBITAL AND BETA-NAPHTHOFLAVONE, Method: PREINCUBATION) “active; positive”. Moreover, the mutagenic call reads like this: (Test System: AMES SALMONELLA TYPHIMURIUM, Strain/Indicator: TA98, Metabolic Activation: RAT, LIVER, S-9, AROCLOR 1254 (30%), Method: PREINCUBATION) “active; positive”; (Test System: AMES SALMONELLA TYPHIMURIUM, Strain/Indicator: TA100, Metabolic Activation: HAMSTER, LIVER, S-9, AROCLOR 1254 (30%), Method: PREINCUBATION) “active; positive”; under setting [2], “active; positive”; (Test System: AMES SALMONELLA TYPHIMURIUM, Strain/Indicator: TA100, Metabolic Activation: RAT LIVER S-9, PHENOBARBITAL AND BETA-NAPHTHOFLAVONE, Method: PREINCUBATION) “active; positive”; (Test System: AMES SALMONELLA TYPHIMURIUM, Strain/Indicator: TA100, Metabolic Activation: RAT, LIVER, S-9, AROCLOR 1254 (30%), Method: PREINCUBATION) “active; positive”; under setting [3], “active; positive”. The mutagenic call runs as follows: (Test System: AMES SALMONELLA TYPHIMURIUM, Strain/Indicator: TA1535, Metabolic Activation: RAT LIVER S-9, PHENOBARBITAL AND BETA-NAPHTHOFLAVONE, Method: PREINCUBATION) “active; positive”; under setting [4], “inactive; negative”; (Test System: AMES SALMONELLA TYPHIMURIUM, Strain/Indicator: TA1537, Metabolic Activation: RAT LIVER S-9, PHENOBARBITAL AND BETA-NAPHTHOFLAVONE, Method: PREINCUBATION) “inactive; negative”; (Test System: E.COLI, Strain/Indicator: WP2UVRA, Metabolic Activation: NONE, Method: PREINCUBATION) “inactive; negative”; (Test System: E.COLI, Strain/Indicator: WP2UVRA, Metabolic Activation: RAT LIVER S-9, PHENOBARBITAL AND BETA-NAPHTHOFLAVONE, Method: PREINCUBATION) “inactive; negative”.
On to `C=CCNCC=C`, for which the mutagenic call is “inactive; negative” (Test System: AMES SALMONELLA TYPHIMURIUM, Strain/Indicator: TA98, Metabolic Activation: HAMSTER, LIVER, S-9, AROCLOR 1254 (10%), Method: PREINCUBATION); “inactive; negative” under setting [1]; “inactive; negative” (Test System: AMES SALMONELLA TYPHIMURIUM, Strain/Indicator: TA98, Metabolic Activation: RAT, LIVER, S-9, AROCLOR 1254 (10%), Method: PREINCUBATION); “inactive; negative” (Test System: AMES SALMONELLA TYPHIMURIUM, Strain/Indicator: TA100, Metabolic Activation: HAMSTER, LIVER, S-9, AROCLOR 1254 (10%), Method: PREINCUBATION); “inactive; negative” under setting [2]; “inactive; negative” (Test System: AMES SALMONELLA TYPHIMURIUM, Strain/Indicator: TA100, Metabolic Activation: RAT, LIVER, S-9, AROCLOR 1254 (10%), Method: PREINCUBATION). The mutagenic call was “inactive; negative” (Test System: AMES SALMONELLA TYPHIMURIUM, Strain/Indicator: TA1535, Metabolic Activation: HAMSTER, LIVER, S-9, AROCLOR 1254 (10%), Method: PREINCUBATION); “inactive; negative” under setting [3]; “inactive; negative” (Test System: AMES SALMONELLA TYPHIMURIUM, Strain/Indicator: TA1535, Metabolic Activation: RAT, LIVER, S-9, AROCLOR 1254 (10%), Method: PREINCUBATION); “inactive; negative” (Test System: AMES SALMONELLA TYPHIMURIUM, Strain/Indicator: TA1537, Metabolic Activation: HAMSTER, LIVER, S-9, AROCLOR 1254 (10%), Method: PREINCUBATION); “inactive; negative” under setting [4]; “inactive; negative” (Test System: AMES SALMONELLA TYPHIMURIUM, Strain/Indicator: TA1537, Metabolic Activation: RAT, LIVER, S-9, AROCLOR 1254 (10%), Method: PREINCUBATION).
